Earlier results on 3 molecules are cited in US11246819B2, “Compositions and methods for inhibiting biofilm deposition and production” (THE TRUSTEES OF THE UNIVERSITY OF PENNSYLVANIA, priority 2016, dated 2022).

Where no end group is shown, it is not given here.

In one data set the test system is biofilm. As to conditions: 3 min incubation with biofilms, mutanase removed, then 6 hr incubation.

“protegrin: cysteine-rich, 18-residue β-sheet antimicrobial peptide (RGGRLCYCRRRFCVCVGR; not fully specified (bridges); ends and bridges not checked; UniProt P32194 131-148, looked up)”: the potency when linearized result is “lost potency”. Further, the “entry into human mast cells and degranulation” value in the data set with human mast cells is “enter human mast cells and induce degranulation”.

As for retrocyclin, the “entry into human mast cells and degranulation” value with human mast cells is “enter human mast cells and induce degranulation”.

B1: mutanase from Paenibacillus sp. strain RM1: bacterial mutanase, codon optimized for chloroplast expression (SEQ ID NO: 1) (protein)
chain: AGGPNLTPGKPITASGQSQTYSPQNVKDGNQNTYWESTNNAFPQWIQVDLGASTGIDQIVLKLPASWEARTQTLAVQGSLNGSTFTDIVGSANYVFSPSVGNNTVTINFTATSTRYVRLYVTANTGWPAAQLSEFEIYGSGDQTPAPDTYQAESAALSGGAKVNTDHAGYIGTGFVDGYWTQGATTTFSVNAPTAGNYDVTLRYGNATGSNKTVSLYVNGAKIRQTTLPSLPNWDSWSSKTETLNLNAGSNTIAYKYDPGDSGNVNLDQITVEASTSTPTPTPSPTPTPTPTPTPTPTPTPTPTPTPTPTPTPTPTPTPTPPPGGNIAIGKSISASSHTQTYVAENANDNDVNTYWEGGGNPSTLTLDLGANYNITSIVLKLNPSSIWAARTQTIQVLGHDQNTTTFSNLVSAKSYSFDPASGNTVTIPVTATVKRLQLNITSNSGAPAGQVAEFQVFGTPAPNPDLTITGMSWSPSSPVETDAITLNATVKNNGNASAAATTVNFYLNNELAGSAPVAALAAGASATVPLNVGAKTAATYAVGAKVDESNAVIELNESNNSYTNPASLVVAPVSSSDLVGTVSWTPSTPIANNAVSFNVNLKNQGTIASAGGSHGVTVVLKNASGSTVQTFSGSYTGSLAPGASVNITLPGTWTAAAGSYTVTATVAADANELPIKQANNANTASLTVYSARGASMPYSRYDTEDATLGGGATLKSAPTFDQALTASEATGQLYAALPSNGSYLQWTVRQGQGGAGVTMRFTMPDSADGMGLNGSLDVYVNGTKVKTVSLTSYYSWQYFSGDMPGDAPSAGRPLFRFDEVHWKLDTPLKPGDTIRIQKNNGDSLEYGVDFIEIEPVPAAISRPANSVSVTDYGAVPNDGQDDLTAFKAAVNAAVASDKILYIPEGTFHLGNMWEIGSVSNMIDHITITGAGIWYTNIQFTNANPASGGISLRITGKLDFSNVYLNSNLRSRYGQNAVYKGFMDNFGTNSVIRDVWVEHFECGFWVGDYGHTPAIRASGLLIENSRIRNNLADGVNFAQGTSNSTVRNSSLRNNGDDALAVWTSNTNGAPEGVNNTFSYNTIENNWRAGGIAFFGGSGHKADHNYIVDCVGGSGIRMNTVFPGYHFQNNTGIVFSDTTIVNCGTSKDLYNGERGAIDLEASNDAIRNVTFTNIDIINSQRDAIQFGYGGGFTNIVFNNININGTGLDGVTTSRFSGPHLGAAIFTYTGNGSATFNNLRTSNIAYPNLYYIQSGFNLIINNHHHHHH
modifications: codon optimized mutanase
Regarding B1, the biofilm degradation entry with biofilm is given as “effectively degraded”.
